Results as given in patent publication US11690915.
Where two headings read alike, the source gives them in different places.

Legend:
[1] = 18-membered ring
[2] = from CC(C)(CO)Cc1c(-c2ccnc(N3CCN(C(=O)OCc4ccccc4)CC3)c2)n(C(C)(C)C#N)c2ccc(-c3csc(C[C@H](NC(=O)OC(C)(C)C)C(=O)N4CCC[C@@H](C(=O)O)N4)n3)cc12; ester bond; 18-membered ring; EDC/HOBt/DIEA; DCM; 1.05 mM

CCn1c(-c2cccnc2[C@H](C)OC)c2c3cc(ccc31)-c1csc(n1)[C@@H](OCC(F)F)[C@H](NC(=O)OC(C)(C)C)C(=O)N1CCC[C@H](N1)C(=O)OCC(C)(C)C2
ring closure, isolated yield ([1]; from CCn1c(-c2cccnc2[C@H](C)OC)c(CC(C)(C)COC(=O)[C@@H]2CCCN(C(=O)[C@@H](NC(=O)OC(C)(C)C)[C@H](OCC(F)F)c3nc(Br)cs3)N2)c2cc(B3OC(C)(C)C(C)(C)O3)ccc21, cc_pd bond, Pd(DtBPF)Cl2/K3PO4, toluene/1,4-dioxane/H2O 3:1:1, 10.0 mM, 60.0 °C, 1.0 h): 59%

CC1(C)COC(=O)[C@@H]2CCCN(N2)C(=O)[C@@H](NC(=O)OC(C)(C)C)Cc2nc(cs2)-c2ccc3[nH]c(I)c(c3c2)C1
ring closure, isolated yield ([1]; from CC(C)(CO)Cc1c(I)[nH]c2ccc(-c3csc(C[C@H](NC(=O)OC(C)(C)C)C(=O)N4CCC[C@@H](C(=O)O)N4)n3)cc12, ester bond, EDC/HOBt/DIEA, DCM, 17.6 mM): 45.9%

CO[C@@H](C)c1ncccc1-c1c2c3cc(ccc3n1CCOC1CCOCC1)-c1csc(n1)C[C@H](NC(=O)OC(C)(C)C)C(=O)N1CCC[C@H](N1)C(=O)OCC(C)(C)C2
ring closure, isolated yield ([1]; from CO[C@@H](C)c1ncccc1-c1c(CC(C)(C)CO)c2cc(-c3csc(C[C@H](NC(=O)OC(C)(C)C)C(=O)N4CCC[C@@H](C(=O)O)N4)n3)ccc2n1CCOC1CCOCC1, ester bond, EDC/HOBt/DIEA, DCM, 7.0 mM): 68%

CC1(C)COC(=O)[C@@H]2CCCN(N2)C(=O)[C@@H](NC(=O)OC(C)(C)C)Cc2nc(cs2)-c2ccc3c(c2)c(c(-c2ccnc(N4CCN(C(=O)OCc5ccccc5)CC4)c2)n3C(C)(C)C#N)C1
ring closure, crude yield [2]: 52%

CCn1c(-c2cc(N3CCN(C(=O)OCc4ccccc4)CC3)cnc2[C@H](C)OC)c2c3cc(ccc31)-c1csc(n1)C[C@H](NC(=O)OC(C)(C)C)C(=O)N1CCC[C@H](N1)C(=O)OCC(C)(C)C2
ring closure, isolated yield ([1]; from CCn1c(-c2cc(N3CCN(C(=O)OCc4ccccc4)CC3)cnc2[C@H](C)OC)c(CC(C)(C)CO)c2cc(-c3csc(C[C@H](NC(=O)OC(C)(C)C)C(=O)N4CCC[C@@H](C(=O)O)N4)n3)ccc21, ester bond, EDC/HOBt/DIEA, MeCN, 10.3 mM, 25.0 °C): 54.8%
